This is an account of results in PubChem BioAssay AID1645848.

Converted amounts (≈) assume the structure as drawn. Where only a bound is given, the exact number is not on record here.

For the series the following is noted: buffer; pH 7.4; 6.0 h; 150.0 µM.
For the compound `N#Cc1ccccc1S(=O)(=O)Nc1cnccc1C(=O)Nc1nc(-c2ccccc2)cs1`, the solubility (kinetic) amounted to 50.9 µg/mL (≈ 110 µM).

In turn, `O=C(NC1CC1)C1CCCN1C(=O)c1cccc(-c2ccccn2)c1` (stereo not drawn) came in with a solubility (kinetic) above 74 µg/mL.

For the compound `CCOC(=O)N1CCN(Cc2nc3cc(NC(=O)CC(C)C)ccc3n2C(C)C)CC1`, the solubility (kinetic) was above 63 µg/mL.

The compound `O=C(Nc1cccc(C(F)(F)F)c1)c1ccccc1NC(=O)C1CCCCC1` had a solubility (kinetic) below 1 µg/mL.

With `Cc1ccc(NC(=O)CSc2ncc(S(=O)(=O)c3ccc(C(C)C)cc3)c(=O)[nH]2)cc1C`, the kinetic solubility is above 70 µg/mL.

For the compound `COc1ccc2[nH]c(C[C@@H]3C[C@@H](C(C)C)[C@H](CNCc4ccccc4O)C=C3C)nc2n1`, the solubility (kinetic) worked out at 42.1 µg/mL (≈ 96.9 µM).

`CCOC(=O)C1CCN(c2ncnc3c2c(-c2ccccc2)cn3-c2ccccc2)CC1` displayed a kinetic solubility below 1 µg/mL.

`O=C(Cc1ccc(Cl)c(Cl)c1)Nc1ccc(S(=O)(=O)Nc2ccon2)cc1` displayed a kinetic solubility above 100 µg/mL.

The compound `Cc1ccccc1-c1nc(NCc2ccc(-c3cccnc3)cc2)c2ccccc2n1` registered a solubility (kinetic) below 1 µg/mL.

`Cc1ccc(C(=O)N2CCc3cc(-c4nc(NC(=O)Cc5ccc6c(c5)OCO6)sc4C)ccc32)cc1`: the kinetic solubility is below 1 µg/mL.

`CC1=C(C(=O)Nc2nncs2)C(c2[nH]ncc2Cl)N=C(Nc2nc3ccccc3o2)N1` (stereo not drawn) gave a solubility (kinetic) of 34.6 µg/mL (≈ 75.8 µM).

In turn, `Cc1ccc(NS(=O)(=O)c2ccc3[nH]c4c(c3c2)CCCCCC4)cc1` yielded a kinetic solubility below 1 µg/mL.

As to `COc1cccc(C(=O)Nc2nc(-c3nnn(-c4cc(C)ccc4C)c3C)ns2)c1`, the kinetic solubility was 1.2 µg/mL (≈ 2.86 µM).

`CC(=O)NCc1ccc(-c2csc(Nc3cc(C)cc(C)c3)n2)o1` returned a solubility (kinetic) of 1.14 µg/mL (≈ 3.33 µM).

The compound `CCc1cc(Cl)c(OC)c(C(=O)NC[C@@H]2CCCN2CC)c1O.Cl` gave a solubility (kinetic) of 27.3 µg/mL.

Consider `CC(C)c1cc(C(=O)N2CC[C@@H](NC(=O)C3CC3)C2)n[nH]1`, for which the kinetic solubility is above 43 µg/mL.

As to `CCN1C(=O)c2ccccc2[S@](=O)c2ccc(C(=O)N[C@H](C)c3ccc4ccccc4c3)cc21`, the kinetic solubility was below 1 µg/mL.

As to `COc1ccc(CCN2CCC(Nc3nc4ccccc4n3Cc3ccc(F)cc3)CC2)cc1`, the solubility (kinetic) worked out at 54.6 µg/mL (≈ 119 µM).

As for `COc1ccccc1S(=O)(=O)Nc1cnccc1C(=O)Nc1nc(-c2ccccc2)cs1`, the kinetic solubility is 42.6 µg/mL (≈ 91.4 µM).

In turn, `O=C(NCc1ccc(S(=O)(=O)c2cccc(C(F)(F)F)c2)cc1)c1cnc2[nH]ncc2c1` yielded a solubility (kinetic) of 5.88 µg/mL (≈ 12.8 µM).

Compound `CCOc1ccc(CCNC(=O)c2cc3cccnc3n2Cc2cccc(C)n2)cc1OCC` came in with a kinetic solubility of 43.8 µg/mL (≈ 95.4 µM).

In turn, `CCc1ccc2oc(NC3=NC(c4[nH]ncc4Cl)C4=C(CCCC4=O)N3)nc2c1` (stereo not drawn) yielded a kinetic solubility below 1 µg/mL.

As to `Cc1cccc(-n2cnc3cc(C(=O)N4CCC(Br)CC4)ccc32)c1`, the kinetic solubility worked out at 35.2 µg/mL (≈ 88.3 µM).

Consider `COc1ccc(NC(=O)c2c(C)cccc2C)cc1[S+](=O)([O-])N(C)C`, for which the solubility (kinetic) is 32.8 µg/mL (≈ 90.4 µM).

Regarding `CCCCN(C)C(=O)c1c(C)sc2ccn(CCC)c(=O)c12`, the kinetic solubility was above 32 µg/mL.

For `COc1cccc(CNc2ccc(S(=O)(=O)Nc3nc(C)c(C)s3)cc2)c1O`, the kinetic solubility was determined as 1.83 µg/mL (≈ 4.35 µM).

As to `CCCCNC(=O)CN1CCN(c2ncc(NC(=O)c3ccc(Cl)cc3)cc2C(=O)O)CC1`, the kinetic solubility is above 70 µg/mL.

`O=[N+]([O-])c1cccc(CSc2nc3ncc(Br)cc3[nH]2)c1` showed a kinetic solubility below 1 µg/mL.

The compound `CCCN1CNc2c(c(=O)[nH]c(=S)n2CCc2ccc(OC)c(OC)c2)C1` had a kinetic solubility above 58 µg/mL.

The compound `O=[S+]([O-])(Nc1nccs1)c1ccc(NCc2cccc(Cl)c2)cc1` yielded a kinetic solubility of 2.53 µg/mL (≈ 6.67 µM).

`COc1cc2c(C(=O)N3CCN(c4cccc(C(F)(F)F)c4)CC3)cn(CC(C)C)c(=O)c2cc1OC`: the kinetic solubility was found to be 4.92 µg/mL (≈ 9.5 µM).

In the case of `O=C(Nc1ncc(Cc2ccc(C(F)(F)F)cc2)s1)c1ccc(-c2cccnc2)o1`, the solubility (kinetic) was below 1 µg/mL.

Regarding `O=C(Oc1ccc[nH]c1=O)c1cc([N+](=O)[O-])cc([N+](=O)[O-])c1`, the kinetic solubility was above 45 µg/mL.

With `CCOC(=O)CCNc1cc(N2CCc3ccccc3CC2)nc(-c2cccnc2)n1`, the solubility (kinetic) came out at 4.04 µg/mL (≈ 9.67 µM).

For `CCc1ccc(NC(=O)c2[nH]c(C)c(C(C)=O)c2C)cc1S(=O)(=O)Nc1ccc(Br)cc1`, the kinetic solubility came out at 7.72 µg/mL (≈ 14.9 µM).

With `CC(=O)C1CCN(c2ncc(-c3cccc(N(C)C)c3)s2)CC1`, the kinetic solubility amounted to 3.33 µg/mL (≈ 10.1 µM).

On to `Cc1ccc(C(=O)Nc2nc3nc(C)cc(=O)n3[nH]2)cc1`, for which the kinetic solubility was above 42 µg/mL.

The compound `O=S(=O)(Nc1cnc2ccccc2c1)c1ccc(NCc2cccc(Cl)c2O)cc1` yielded a kinetic solubility of 1.84 µg/mL (≈ 4.18 µM).

For the compound `CCOc1ccc(CCNC(=O)c2cc3sccc3n2Cc2ccccc2)cc1OCC`, the kinetic solubility is below 1 µg/mL.

The compound `O=C(NCCCNc1nc(Nc2cccc(NC(=O)N3CCCC3)c2)ncc1I)c1cccs1` came in with a solubility (kinetic) of 14.2 µg/mL (≈ 24 µM).

As for `Cc1ccc(S(=O)(=O)Nc2ccccc2C(=O)Nc2ccc(-c3ccccc3)nc2)cc1`, the solubility (kinetic) was below 1 µg/mL.

`Cc1noc([C@@H]2CN(C(=O)c3nn(C)c4ccccc34)C[C@H]2CO)n1` had a kinetic solubility above 100 µg/mL.

Compound `CC1=C(C(=O)Nc2ccccc2C)C(c2ccccc2Br)N=C(Nc2nc3ccccc3o2)N1` (stereo not drawn) had a kinetic solubility below 1 µg/mL.

In turn, `Cc1ccc(S(=O)(=O)Nc2ccccc2C(=O)Nc2nccs2)cc1` returned a solubility (kinetic) of 7.17 µg/mL (≈ 19.2 µM).

In turn, `Cc1ccc(-c2ccnc(N3CCC(C(N)=O)CC3)n2)cc1` had a kinetic solubility of 2.67 µg/mL (≈ 9.01 µM).

Compound `COc1ccc(NC(C)=O)cc1S(=O)(=O)Nc1ccc(Br)cc1` registered a solubility (kinetic) of 32.7 µg/mL (≈ 81.9 µM).

The compound `O=C(Nc1ncc(Cc2cccc(C(F)(F)F)c2)s1)c1ccc(-c2cccc([N+](=O)[O-])c2)o1` came in with a kinetic solubility below 1 µg/mL.

Compound `Cc1ccc(CNc2ccccc2C(=O)Nc2nc(-c3ccccc3)cs2)cc1` had a kinetic solubility below 1 µg/mL.

`COc1ccnc(NC(=S)N2CCN(c3ncc(C(F)(F)F)cc3Cl)CC2)c1` returned a solubility (kinetic) of 1.24 µg/mL (≈ 2.86 µM).

In turn, `COC(=O)Nc1nc2ccc(Sc3ccccc3)cc2[nH]1` displayed a solubility (kinetic) below 1 µg/mL.

`CCOc1ccc(C(C)CNC(=O)c2cc3sccc3n2Cc2ccccc2)cc1OCC` (stereo not drawn) came in with a solubility (kinetic) below 1 µg/mL.

As for `O=C(NCCCn1ccnc1)c1nc(-c2ccccc2)cc2[nH]ccc12`, the kinetic solubility was above 77 µg/mL.

With `COc1cccc(-n2ncc3c2CCCC3NC(=O)c2ccccn2)c1` (stereo not drawn), the kinetic solubility is above 51 µg/mL.

Turning to `N#C/C(=C\c1ccc(Sc2ccc(Cl)cc2)o1)c1nc2ccccc2[nH]1`, the solubility (kinetic) was below 1 µg/mL.

Compound `Cc1cccc2c1NC(=O)/C2=C/c1cc(Cl)c(O)c(Cl)c1` yielded a kinetic solubility of 10.1 µg/mL (≈ 31.5 µM).

`CN(C)c1cccc(-c2c3c(=O)n(-c4ccccc4Cl)[nH]c3cc(=O)n2C)c1`: the kinetic solubility was 46.5 µg/mL (≈ 118 µM).

In turn, `CCc1[nH]c2ccc(CNC(=O)Cc3cnc4c(C)cccn34)cc2c1C` came in with a kinetic solubility of 17.3 µg/mL (≈ 47.9 µM).

On to `COCCNC(=O)c1ccc(-c2ncc3cnc(-c4cccc(F)c4)cn23)cc1`, for which the solubility (kinetic) came out at 28.1 µg/mL (≈ 71.9 µM).

For the compound `Nc1c(-c2ccccc2)cnc2c(-c3ccccc3)cnn12`, the kinetic solubility was below 1 µg/mL.

Compound `Cc1ccc(N(C)S(=O)(=O)c2ccc(-c3cnc(C4CC4)o3)cc2)cc1` showed a solubility (kinetic) below 1 µg/mL.

Compound `CC(C)c1ccc(Nc2c(-c3ccccn3)nc3ccccn23)cc1` returned a kinetic solubility below 1 µg/mL.

Take `CC(=O)c1c(C)[nH]c(C(=O)Nc2cccc([S+](=O)([O-])Nc3c(C)cccc3C)c2)c1C`: the kinetic solubility was below 1 µg/mL.

`Cc1ccc(-c2cc3c(nn2)-c2ccccc2C3=O)cc1`: the solubility (kinetic) was below 1 µg/mL.

`CC(=O)Nc1cccc(Nc2nc3ccccc3n3c(C)nnc23)c1` yielded a kinetic solubility below 1 µg/mL.

In the case of `CC(C)(N)C(=O)N[C@H](COCc1ccccc1)C(=O)N1CCC2(CC1)CN(S(C)(=O)=O)c1ccccc12`, the solubility (kinetic) is above 78 µg/mL.

As for `O=C(Nc1ccccc1-c1cn2c(CN3CCNCC3)csc2n1)c1cnc2ccccc2n1`, the solubility (kinetic) came out at 4.56 µg/mL (≈ 9.71 µM).

`NC(=O)C1CCN(c2nc(-c3ccccc3Cl)cs2)CC1` showed a kinetic solubility above 47 µg/mL.

Consider `O=C1C2=C(Nc3ccccc3SC2c2ccco2)c2ccccc21` (stereo not drawn), for which the solubility (kinetic) was below 1 µg/mL.

The compound `COc1ccc(-c2nc3ccccc3c(=O)n2Cc2ccccc2)cc1COc1ccc(NC(C)=O)cc1` gave a kinetic solubility below 1 µg/mL.

`Oc1ccc(CN2CC(CNc3ccccc3)C3(C2)CN(c2ccccc2)C3)cc1` (stereo not drawn) had a solubility (kinetic) of 1.79 µg/mL (≈ 4.47 µM).

In turn, `O=C(O)c1ccc(O)c2ncc(N3CCCN(CCc4cccc5ccccc45)CC3)cc12` had a solubility (kinetic) of 21.4 µg/mL (≈ 48.4 µM).

Take `Cc1cccc(S(=O)(=O)c2cn(Cc3ccccc3)c3cc(N4CCCCC4C)c(F)cc3c2=O)c1` (stereo not drawn): the solubility (kinetic) is below 1 µg/mL.

In turn, `CCOc1ccc(CCNC(=O)c2cc3ccccc3n2Cc2ccc(Cl)c(F)c2)cc1OCC` gave a solubility (kinetic) below 1 µg/mL.

Compound `CSc1cc2c(s1)c1cnn(Cc3cccc(N)c3)c(=O)c1n2C` came in with a solubility (kinetic) below 1 µg/mL.

In turn, `CCOC(=O)c1nc(Nc2ccc(N3CCC(C)CC3)cc2)c2ccccc2n1` displayed a kinetic solubility of 2.18 µg/mL (≈ 5.59 µM).

The compound `CC(=O)OCCN1C(=O)c2c(C)nc3ccc(S(=O)(=O)N4CCOCC4)cc3c2C1=O` displayed a kinetic solubility below 1 µg/mL.

In turn, `CCOc1ccc(CCNC(=O)c2cc3sccc3n2CCN2CCOCC2)cc1OCC` yielded a kinetic solubility of 52.4 µg/mL (≈ 111 µM).

Turning to `O=C(O)c1ccnc2cc(-c3nc4ccccc4n3CCN3CCCCC3)sc12`, the solubility (kinetic) came to 6.93 µg/mL (≈ 17.1 µM).

For the compound `Cc1cccc(CS(=O)(=O)c2ncc(Cl)c(C(=O)Nc3nc4ccc(F)cc4s3)n2)c1`, the kinetic solubility was below 1 µg/mL.

As for `CCOc1ccc(N2CC(c3nc(-c4cc(OC)c(OC)c(OC)c4)no3)CC2=O)cc1` (stereo not drawn), the solubility (kinetic) is 2.38 µg/mL (≈ 5.41 µM).

`CCCCOc1ccc(CC(=O)NO)cc1` showed a kinetic solubility of 13.6 µg/mL (≈ 60.9 µM).

As for `Cc1ccccc1C(=O)NC1CCN(c2ccc3nnc(C4CC4)n3n2)CC1`, the kinetic solubility is above 56 µg/mL.

For `COC(=O)c1cc2occc2n1Cc1nc(-c2ccc(C)cc2)oc1C`, the solubility (kinetic) was below 1 µg/mL.

The compound `CC(C)(C)C1CCc2nc(NC(=O)c3cccc(Cl)c3)sc2C1` (stereo not drawn) returned a solubility (kinetic) below 1 µg/mL.

Regarding `C#CCNC(=O)c1nc(-c2ccc([S+](C)(=O)[O-])cc2)c2ccccn12`, the solubility (kinetic) is 1.27 µg/mL (≈ 3.59 µM).

Compound `Cc1ccc(S(=O)(=O)N2CCN(C(=O)c3cc4c(s3)CCC4)CC2)cc1` came in with a kinetic solubility below 1 µg/mL.

`CC(C)CNC(=O)c1cn2cc(-c3ccccc3)sc2n1` yielded a solubility (kinetic) of 5.33 µg/mL (≈ 17.8 µM).

On to `CCOC(=O)c1c[nH]c2c3c(ccc2c1=O)CCCC3`, for which the kinetic solubility amounted to 34 µg/mL (≈ 125 µM).
